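These data come from cells grown in 96-well plates and exposed to compound for 48 hours at five concentrations. Here, GI50 denotes the concentration required for 50% inhibition of growth.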 Active and inactive are the calls of the source. No stated cut-off is given here; in the data, active = GI50 up to about 1.1 µM and inactive = higher.
Legend:
Assay in all cases: NCI tumour cell line growth inhibition, 48 h
[1] = tested on: SF-295
[2] = tested on: K562
[3] = tested on: MOLT-4
[4] = tested on: Malme-3M
[5] = tested on: EKVX
[6] = tested on: ACHN
[7] = tested on: NCI-H460
[8] = tested on: HCT-15
[9] = tested on: U-251
[10] = tested on: HOP-62
[11] = tested on: NCI/ADR-RES
[12] = tested on: MCF7
[13] = tested on: UACC-62
[14] = tested on: NCI-H522
[15] = tested on: SK-MEL-5
[16] = tested on: COLO 205
[17] = tested on: SN12C
[18] = tested on: DU-145
[19] = tested on: MDA-N

## Oc1cccc2cc(Br)cnc12
[1]
  GI50: 6.15 µM (inactive)
[2]
  GI50: 3.21 µM (inactive)
[3]
  GI50: 3.29 µM (inactive)
[4]
  GI50: 7.96 µM (inactive)
[5]
  GI50: 5.14 µM (inactive)
[6]
  GI50: 6.03 µM (inactive)
[7]
  GI50: 5.89 µM (inactive)
[8]
  GI50: 4.43 µM
[9]
  GI50: 8.32 µM (inactive)
[10]
  GI50: 16.2 µM (inactive)
[11]
  GI50: 3.68 µM (inactive)
[12]
  GI50: 3.18 µM (inactive)
[13]
  GI50: 5.96 µM (inactive)
[14]
  GI50: 2.49 µM (inactive)
[15]
  GI50: 6.5 µM (inactive)
[16]
  GI50: 29.2 µM (inactive)
[17]
  GI50: 14.9 µM (inactive)
[18]
  GI50: 28.2 µM (inactive)
[19]
  GI50: 21.7 µM (inactive)

## Nc1nc(Nc2ccccc2)sc1C(=O)c1cccs1
[1]
  GI50: 21.8 µM (inactive)
[2]
  GI50: 9.86 µM (inactive)
[3]
  GI50: 6.75 µM (inactive)
[4]
  GI50: 22.1 µM (inactive)
[5]
  GI50: 13.6 µM (inactive)
[6]
  GI50: 16.8 µM (inactive)
[7]
  GI50: 10.4 µM (inactive)
[8]
  GI50: 10.8 µM
[9]
  GI50: 15.3 µM (inactive)
[10]
  GI50: 22.3 µM (inactive)
[11]
  GI50: 21.2 µM (inactive)
[12]
  GI50: 8.13 µM (inactive)
[13]
  GI50: 15.7 µM (inactive)
[14]
  GI50: 11 µM (inactive)
[15]
  GI50: 4.08 µM (inactive)
[16]
  GI50: 7.06 µM (inactive)
[17]
  GI50: 16 µM (inactive)
[18]
  GI50: 8.97 µM (inactive)
[19]
  GI50: 17.1 µM (inactive)

## CC1(C)CCCC2OC2CCC(C)(C)C1=O (centres undefined)
[1]
  GI50: > 100 µM (inactive)
[2]
  GI50: > 100 µM (inactive)
[3]
  GI50: > 100 µM (inactive)
[4]
  GI50: > 100 µM (inactive)
[5]
  GI50: > 100 µM (inactive)
[6]
  GI50: > 100 µM (inactive)
[7]
  GI50: > 100 µM (inactive)
[8]
  GI50: > 100 µM
[9]
  GI50: > 100 µM (inactive)
[10]
  GI50: > 100 µM (inactive)
[11]
  GI50: > 100 µM (inactive)
[12]
  GI50: > 100 µM (inactive)
[13]
  GI50: > 100 µM (inactive)
[14]
  GI50: > 100 µM (inactive)
[15]
  GI50: > 100 µM (inactive)
[16]
  GI50: > 100 µM (inactive)
[17]
  GI50: > 100 µM (inactive)
[18]
  GI50: > 100 µM (inactive)
[19]
  GI50: > 100 µM (inactive)

## C[C@@H](CC(=O)OCc1ccccc1)OC1OC(COC(=O)C(C)(C)C)C(OC(=O)C(C)(C)C)C(OC(=O)C(C)(C)C)C1OC(=O)C(C)(C)C (some centres undefined)
[1]
  GI50: > 100 µM (inactive)
[2]
  GI50: > 100 µM (inactive)
[3]
  GI50: 94.4 µM (inactive)
[4]
  GI50: > 100 µM (inactive)
[5]
  GI50: > 100 µM (inactive)
[6]
  GI50: > 100 µM (inactive)
[7]
  GI50: > 100 µM (inactive)
[8]
  GI50: > 100 µM
[9]
  GI50: > 100 µM (inactive)
[10]
  GI50: > 100 µM (inactive)
[11]
  GI50: > 100 µM (inactive)
[12]
  GI50: > 100 µM (inactive)
[13]
  GI50: > 100 µM (inactive)
[14]
  GI50: > 100 µM (inactive)
[15]
  GI50: 5.28 µM (inactive)
[16]
  GI50: > 100 µM (inactive)
[17]
  GI50: > 100 µM (inactive)
[18]
  GI50: > 100 µM (inactive)
[19]
  GI50: 36 µM (inactive)

## CCCCC/C(=N\c1[nH]cnc1C(N)=O)OCC
[1]
  GI50: > 100 µM (inactive)
[2]
  GI50: > 100 µM (inactive)
[3]
  GI50: > 100 µM (inactive)
[4]
  GI50: > 100 µM (inactive)
[5]
  GI50: 32.3 µM (inactive)
[6]
  GI50: > 100 µM (inactive)
[7]
  GI50: > 100 µM (inactive)
[8]
  GI50: > 100 µM
[9]
  GI50: > 100 µM (inactive)
[10]
  GI50: > 100 µM (inactive)
[11]
  GI50: > 100 µM (inactive)
[12]
  GI50: > 100 µM (inactive)
[13]
  GI50: > 100 µM (inactive)
[14]
  GI50: 75 µM (inactive)
[15]
  GI50: > 100 µM (inactive)
[16]
  GI50: > 100 µM (inactive)
[17]
  GI50: > 100 µM (inactive)
[18]
  GI50: > 100 µM (inactive)
[19]
  GI50: > 100 µM (inactive)

## COc1cc2c3c(c1O)C1(C=CC(=O)C=C1)CC3N(C)CC2 (centres undefined) [GLAZIOVINE]
[1]
  GI50: 12 µM (inactive)
[2]
  GI50: 5.2 µM (inactive)
[3]
  GI50: 4.26 µM (inactive)
[4]
  GI50: 11.3 µM (inactive)
[5]
  GI50: 8.41 µM (inactive)
[6]
  GI50: 14.5 µM (inactive)
[7]
  GI50: 4.11 µM (inactive)
[8]
  GI50: 5.96 µM
[9]
  GI50: 4.26 µM (inactive)
[10]
  GI50: 13.1 µM (inactive)
[11]
  GI50: 2.72 µM (inactive)
[12]
  GI50: 5.14 µM (inactive)
[13]
  GI50: 11.1 µM (inactive)
[14]
  GI50: 1.93 µM (inactive)
[15]
  GI50: 14 µM (inactive)
[16]
  GI50: 5.4 µM (inactive)
[17]
  GI50: 9.18 µM (inactive)
[18]
  GI50: 13.2 µM (inactive)
[19]
  GI50: 10.7 µM (inactive)
